Assay results reported in US9828393B2, “Silylalkyloxyaryl compounds and methods for treating cancer” (THE REGENTS OF THE UNIVERSITY OF COLORADO, a body corporate, priority 2013, dated 2017).
Read-outs that look alike come from different tables or passages of the source.

Columns and labels:
MOLT-4 = assay: NCI-60 cell line screen (SRB), MOLT-4; format: cell-based, human
Experimental: (§1) Drug sensitivity data are provided as GI50s (concentrations required to inhibit growth by 50%). The first row of the text file identifies cell lines, separated by tabs. Subsequent rows contain compound number, compound name, and GI50 for each cell line, each separated by a tab. […] For a typical screening experiment, cells are inoculated into 96 well microtiter plates in 100 μL at plating densities ranging from 5,000 to 40,000 cells/well depending on the doubling time of individual cell lines. After cell inoculation, the microtiter plates are incubated at 37° C., 5% CO2, 95% air and 100% relative humidity for 24 h prior to addition of experimental drugs. After 24 h, two plates of each cell line are fixed in situ with TCA, to represent a measurement of the cell population for each cell line at the time of drug addition (Tz). Experimental drugs are solubilized in dimethyl sulfoxide at 400-fold the desired final maximum test concentration and stored frozen prior to use. At the time of drug addition, an aliquot of frozen concentrate is thawed and diluted to twice the desired final maximum test concentration with complete medium containing 50 μg/ml gentamicin. Additional four, 10-fold or one-half log serial dilutions are made to provide a total of five drug concentrations plus control. Aliquots of 100 μl of these different drug dilutions are added to the appropriate microtiter wells already containing 100 μl of medium, resulting in the required final drug concentrations. Following drug addition, the plates are incubated for an additional 48 h at 37° C., 5% CO2, 95% air, and 100% relative humidity. For adherent cells, the assay is terminated by the addition of cold TCA. Cells are fixed in situ by the gentle addition of 50 μl of cold 50% (w/v) TCA (final concentration, 10% TCA) and incubated for 60 minutes at 4° C. The supernatant is discarded, and the plates are washed five times with tap water and air dried. Sulforhodamine B (SRB) solution (100 μl) at 0.4% (w/v) in 1% acetic acid is added to each well, and plates are incubated for 10 minutes at room temperature. After staining, unbound dye is removed by washing five times with 1% acetic acid and the plates are air dried. Bound stain is subsequently solubilized with 10 mM trizma base, and the absorbance is read on an automated plate reader at a wavelength of 515 nm. For suspension cells, the methodology is the same except that the assay is terminated by fixing settled cells at the bottom of the wells by gently adding 50 μl of 80% TCA (final concentration, 16% TCA). Using the seven absorbance measurements [time zero, (Tz), control growth, (C), and test growth in the presence of drug at the five concentration levels (Ti)], the percentage growth is calculated at each of the drug concentrations levels. […]

NCI-H522 = assay: NCI-60 cell line screen (SRB), NCI-H522; format: cell-based, human
Experimental: as §1

[1] = system: Non-Small Cell Lung Cancer cell lines; assay: NCI-60 cell line screen, Non-Small Cell Lung Cancer panel average; format: cell-based, human; details: read-out: GI50 Average
Experimental: as §1

HCC-2998 = assay: NCI-60 cell line screen (SRB), HCC-2998; format: cell-based, human
Experimental: as §1

HCT-116 = assay: NCI-60 cell line screen (SRB), HCT-116; format: cell-based, human
Experimental: as §1

HCT-15 = assay: NCI-60 cell line screen (SRB), HCT-15; format: cell-based, human
Experimental: as §1

SNB-19 = assay: NCI-60 cell line screen (SRB), SNB-19; format: cell-based, human
Experimental: as §1

SNB-75 = assay: NCI-60 cell line screen (SRB), SNB-75; format: cell-based; details: Homo sapiens
Experimental: as §1, with “temperature.” for “temperature. After staining, unbound dye is removed by washing five times with 1% acetic acid and the plates are air dried. Bound stain is subsequently solubilized with 10 mM trizma base, and the absorbance is read on an automated plate reader at a wavelength of 515 nm. For suspension cells, the methodology is the same except that the assay is terminated by fixing settled cells at the bottom of the wells by gently adding 50 μl of 80% TCA (final concentration, 16% TCA). Using the seven absorbance measurements [time zero, (Tz), control growth, (C), and test growth in the presence of drug at the five concentration levels (Ti)], the percentage growth is calculated at each of the drug concentrations levels.”

LOX IMVI = assay: NCI-60 cell line screen (SRB), LOX IMVI; format: cell-based, human
Experimental: as §1

SK-MEL-5 = assay: NCI-60 cell line screen (SRB), SK-MEL-5; format: cell-based, human
Experimental: as §1

UACC-257 = assay: NCI-60 cell line screen (SRB), UACC-257; format: cell-based, human
Experimental: as §1

UACC-62 = assay: NCI-60 cell line screen (SRB), UACC-62; format: cell-based, human
Experimental: as §1

OVCAR-5 = assay: NCI-60 cell line screen (SRB), OVCAR-5; format: cell-based, human
Experimental: as §1

NCI/ADR-RES = assay: NCI-60 cell line screen (SRB), NCI/ADR-RES; format: cell-based, human
Experimental: as §1

[2] = system: Ovarian Cancer cell lines; assay: NCI-60 cell line screen, Ovarian Cancer panel average; format: cell-based, human; details: read-out: GI50 Average
Experimental: as §1

ACHN = assay: NCI-60 cell line screen (SRB), ACHN; format: cell-based, human
Experimental: as §1

CAKI-1 = assay: NCI-60 cell line screen (SRB), CAKI-1; format: cell-based, human
Experimental: as §1

RXF 393 = assay: NCI-60 cell line screen (SRB), RXF 393; format: cell-based, human
Experimental: as §1

TK-10 = assay: NCI-60 cell line screen (SRB), TK-10; format: cell-based, human
Experimental: as §1

Renal Cancer cell lines = assay: NCI-60 cell line screen, Renal Cancer panel average; format: cell-based, human; details: read-out: GI50 Average
Experimental: as §1

HS 578T = assay: NCI-60 cell line screen (SRB), HS 578T; format: cell-based, human
Experimental: as §1

T-47D = assay: NCI-60 cell line screen (SRB), T-47D; format: cell-based, human
Experimental: as §1

MDA-MB-468 = assay: NCI-60 cell line screen (SRB), MDA-MB-468; format: cell-based, human
Experimental: as §1

Breast Cancer cell lines = assay: NCI-60 cell line screen, Breast Cancer panel average; format: cell-based, human; details: read-out: GI50 Average
Experimental: as §1

CC1(C)CC(NC(=O)[C@H](Cc2ccc(OCc3c(Cl)cccc3Cl)cc2)NC(=O)c2ccc(OCCC[Si](C)(C)C)cc2)CC(C)(C)N1 [GH1501, N^α-{4-[3-(trimethylsilyl)propoxy]-benzoyl}-N-(2,2,6,6-tetramethylpiperidin-4-yl)-[O-(2,6-dichlorobenzyl)-L-tyrosinamide]]
GI50 (MOLT-4; Homo sapiens, MOLT-4, 48 h): 353 nM
GI50 (NCI-H522; Homo sapiens, NCI-H522, 48 h): 1820 nM
GI50 ([1]; Homo sapiens): 1330 nM
GI50 (HCC-2998; Homo sapiens, HCC 2998, 48 h): 1050 nM
GI50 (HCT-116; Homo sapiens, HCT-116, 48 h): 206 nM
GI50 (HCT-15; Homo sapiens, HCT-15, 48 h): 357 nM
GI50 (SNB-19; Homo sapiens, SNB-19, 48 h): 1720 nM
GI50 (SNB-75; SNB-75, 48 h): 1340 nM
GI50 (LOX IMVI; Homo sapiens, 48 h): 197 nM
GI50 (SK-MEL-5; Homo sapiens, SK-MEL-5, 48 h): 1720 nM
GI50 (UACC-257; Homo sapiens, UACC-257, 48 h): 1880 nM
GI50 (UACC-62; Homo sapiens, UACC-62, 48 h): 1490 nM
GI50 (OVCAR-5; Homo sapiens, OVCAR-5, 48 h): 1680 nM
GI50 (NCI/ADR-RES; Homo sapiens, 48 h): 1480 nM
GI50 ([2]; Homo sapiens): 1370 nM
GI50 (ACHN; Homo sapiens, 48 h): 1320 nM
GI50 (CAKI-1; Homo sapiens, CAKI-1, 48 h): 1360 nM
GI50 (RXF 393; Homo sapiens, RXF 393, 48 h): 1510 nM
GI50 (TK-10; Homo sapiens, TK-10, 48 h): 1850 nM
GI50 (Renal Cancer cell lines; Homo sapiens): 1280 nM
GI50 (HS 578T; Homo sapiens, Hs-578T, 48 h): 1920 nM
GI50 (T-47D; Homo sapiens, T47D, 48 h): 1900 nM
GI50 (MDA-MB-468; Homo sapiens, MDA-MB-468, 48 h): 1700 nM
GI50 (Breast Cancer cell lines; Homo sapiens): 1460 nM

CCCC[Si](C)(C)COc1ccc(C(=O)N[C@@H](Cc2ccc(OCc3c(Cl)cccc3Cl)cc2)C(=O)NC2CC(C)(C)NC(C)(C)C2)cc1 [GH1503, N^α-{4-[(butyldimethylsilyl)methoxy]-benzoyl}-N-(2,2,6,6-tetramethylpiperidin-4-yl)-[O-(2,6-dichlorobenzyl)-L-tyrosinamide]]
GI50 (MOLT-4; Homo sapiens, Leukemia, MOLT-4, 48 h drug incubation, read-out: GI50): 315 nM
GI50 (NCI-H522; Homo sapiens, Non-Small Cell Lung Cancer, NCI-H522, 48 h drug incubation, read-out: GI50): 1970 nM
GI50 ([1]; Homo sapiens, average over Non-Small Cell Lung Cancer panel): 1210 nM
GI50 (HCC-2998; Homo sapiens, Colon Cancer, HCC-2998, 48 h drug incubation, read-out: GI50): 1070 nM
GI50 (HCT-116; Homo sapiens, Colon Cancer, HCT-116, 48 h drug incubation, read-out: GI50): 319 nM
GI50 (HCT-15; Homo sapiens, Colon Cancer, HCT-15, 48 h drug incubation, read-out: GI50): 323 nM
GI50 (SNB-19; Homo sapiens, CNS Cancer, SNB-19, 48 h drug incubation, read-out: GI50): 1600 nM
GI50 (SNB-75; CNS Cancer, SNB-75, 48 h drug incubation, read-out: GI50): 1350 nM
GI50 (LOX IMVI; Homo sapiens, Melanoma, 48 h drug incubation, read-out: GI50): 191 nM
GI50 (SK-MEL-5; Homo sapiens, Melanoma, SK-MEL-5, 48 h drug incubation, read-out: GI50): 1680 nM
GI50 (UACC-257; Homo sapiens, Melanoma, UACC-257, 48 h drug incubation, read-out: GI50): 1870 nM
GI50 (UACC-62; Homo sapiens, Melanoma, UACC-62, 48 h drug incubation, read-out: GI50): 1500 nM
GI50 (OVCAR-5; Homo sapiens, Ovarian Cancer, OVCAR-5, 48 h drug incubation, read-out: GI50): 1620 nM
GI50 (NCI/ADR-RES; Homo sapiens, Ovarian Cancer, 48 h drug incubation, read-out: GI50): 1250 nM
GI50 ([2]; Homo sapiens, average over Ovarian Cancer panel): 1050 nM
GI50 (ACHN; Homo sapiens, Renal Cancer, 48 h drug incubation, read-out: GI50): 478 nM
GI50 (CAKI-1; Homo sapiens, Renal Cancer, CAKI-1, 48 h drug incubation, read-out: GI50): 1080 nM
GI50 (RXF 393; Homo sapiens, Renal Cancer, RXF 393, 48 h drug incubation, read-out: GI50): 392 nM
GI50 (TK-10; Homo sapiens, Renal Cancer, TK-10, 48 h drug incubation, read-out: GI50): 1890 nM
GI50 (Renal Cancer cell lines; Homo sapiens, average over Renal Cancer panel): 1050 nM
GI50 (HS 578T; Homo sapiens, Breast Cancer, HS 578T, 48 h drug incubation, read-out: GI50): 2010 nM
GI50 (T-47D; Homo sapiens, T47D, Breast Cancer, T-47D, 48 h drug incubation, read-out: GI50): 1840 nM
GI50 (MDA-MB-468; Homo sapiens, Breast Cancer, MDA-MB-468, 48 h drug incubation, read-out: GI50): 1540 nM
GI50 (Breast Cancer cell lines; Homo sapiens, average over Breast Cancer panel): 1390 nM

CCOP(=O)(OCC)C(NC(=O)[C@H](Cc1ccc(-c2ccccc2)cc1)NC(=O)c1ccc(OCCC[Si](C)(C)C)cc1)P(=O)(OCC)OCC [GH1505, N^α-{4-[3-(trimethylsilyl)propoxy]-benzoyl}-N-[bis(dietoxyphosphoryl)methyl]-(4-phenyl-L-phenylalaninamide)]
GI50 (MOLT-4; Leukemia, MOLT-4, 48 h drug incubation, read-out: GI50): 2860 nM
GI50 (NCI-H522; Non-Small Cell Lung Cancer, NCI-H522, 48 h drug incubation, read-out: GI50): 2020 nM
GI50 ([1]; average over Non-Small Cell Lung Cancer panel): 2620 nM
GI50 (HCC-2998; Colon Cancer, HCC-2998, 48 h drug incubation, read-out: GI50): 2020 nM
GI50 (HCT-116; Colon Cancer, HCT-116, 48 h drug incubation, read-out: GI50): 1930 nM
GI50 (HCT-15; Colon Cancer, HCT-15, 48 h drug incubation, read-out: GI50): 2250 nM
GI50 (SNB-19; CNS Cancer, SNB-19, 48 h drug incubation, read-out: GI50): 2060 nM
GI50 (LOX IMVI; Melanoma, 48 h drug incubation, read-out: GI50): 1850 nM
GI50 (SK-MEL-5; Melanoma, SK-MEL-5, 48 h drug incubation, read-out: GI50): 1580 nM
GI50 (UACC-257; Melanoma, UACC-257, 48 h drug incubation, read-out: GI50): 2420 nM
GI50 (UACC-62; Melanoma, UACC-62, 48 h drug incubation, read-out: GI50): 1620 nM
GI50 (OVCAR-5; Ovarian Cancer, OVCAR-5, 48 h drug incubation, read-out: GI50): 1710 nM
GI50 (NCI/ADR-RES; Ovarian Cancer, 48 h drug incubation, read-out: GI50): 3310 nM
GI50 ([2]; average over Ovarian Cancer panel): 2600 nM
GI50 (ACHN; Renal Cancer, 48 h drug incubation, read-out: GI50): 2270 nM
GI50 (CAKI-1; Renal Cancer, CAKI-1, 48 h drug incubation, read-out: GI50): 2900 nM
GI50 (RXF 393; Renal Cancer, RXF 393, 48 h drug incubation, read-out: GI50): 1870 nM
GI50 (TK-10; Renal Cancer, TK-10, 48 h drug incubation, read-out: GI50): 2500 nM
GI50 (Renal Cancer cell lines; average over Renal Cancer panel): 2550 nM
GI50 (HS 578T; Breast Cancer, HS 578T, 48 h drug incubation, read-out: GI50): 2610 nM
GI50 (T-47D; Breast Cancer, T-47D, 48 h drug incubation, read-out: GI50): 3100 nM
GI50 (MDA-MB-468; Breast Cancer, MDA-MB-468, 48 h drug incubation, read-out: GI50): 1720 nM
GI50 (Breast Cancer cell lines; average over Breast Cancer panel): 2170 nM
